# Legend:
# [1] = molecular target: T1, Signal transducer and activator of transcription 5A (Homo sapiens, UniProt P42229); assay: Fluorescence Polarization Assay
# T1 sequence (P42229 whole entry): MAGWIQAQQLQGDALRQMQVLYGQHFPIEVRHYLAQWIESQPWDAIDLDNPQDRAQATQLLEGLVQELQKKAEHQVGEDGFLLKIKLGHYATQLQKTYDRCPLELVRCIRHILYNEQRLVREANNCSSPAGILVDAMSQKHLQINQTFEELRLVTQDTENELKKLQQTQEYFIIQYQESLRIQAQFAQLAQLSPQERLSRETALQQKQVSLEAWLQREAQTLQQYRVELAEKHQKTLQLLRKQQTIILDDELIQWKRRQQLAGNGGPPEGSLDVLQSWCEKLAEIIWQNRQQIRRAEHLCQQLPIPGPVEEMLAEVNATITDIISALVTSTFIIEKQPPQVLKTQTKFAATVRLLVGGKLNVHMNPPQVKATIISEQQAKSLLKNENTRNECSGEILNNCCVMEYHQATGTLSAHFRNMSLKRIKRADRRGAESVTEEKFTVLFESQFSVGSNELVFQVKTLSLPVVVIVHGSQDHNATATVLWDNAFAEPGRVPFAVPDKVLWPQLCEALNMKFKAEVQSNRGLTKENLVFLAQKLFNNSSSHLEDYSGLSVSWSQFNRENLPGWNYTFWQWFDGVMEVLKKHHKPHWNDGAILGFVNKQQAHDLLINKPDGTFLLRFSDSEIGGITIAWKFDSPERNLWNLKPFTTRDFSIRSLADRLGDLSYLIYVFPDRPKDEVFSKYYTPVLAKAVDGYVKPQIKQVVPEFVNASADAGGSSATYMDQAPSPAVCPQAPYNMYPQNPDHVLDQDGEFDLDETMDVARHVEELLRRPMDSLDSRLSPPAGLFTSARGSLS
# Experimental: (§1) For competition-based fluorescence polarization assays, the ability of the test compounds to displace fluorophore-labeled peptides from their respective binding proteins was analyzed as previously described.3 Peptide sequences were: STAT1: 5-carboxyfluorescein-GY(PO3H2)DKPHVL; STAT3: 5-carboxyfluorescein-GY(PO3H2)LPQTV-NH2; STAT4: 5-carboxyfluorescein-GY(PO3H2)LPQNID-OH; STAT5a and STAT5b: 5-carboxyfluorescein-GY(PO3H2)LVLDKW; STAT6: 5-carboxyfluorescein-GY(PO3H2)VPWQDLI-OH; Lck SH2: 5-carboxyfluorescein-GY(PO3H2)EEIP. Due to protein instability, STAT2 was not analyzed. Final concentration of 5-carboxyfluorescein-labeled peptides: 10 nM. […] Pipetting was carried out partly using a Biomek FX workstation (Beckman-Coulter). Pr
# [2] = molecular target: T2, Signal transducer and activator of transcription 5B (Homo sapiens, UniProt P51692); assay: Fluorescence Polarization Assay
# T2 sequence (P51692 whole entry): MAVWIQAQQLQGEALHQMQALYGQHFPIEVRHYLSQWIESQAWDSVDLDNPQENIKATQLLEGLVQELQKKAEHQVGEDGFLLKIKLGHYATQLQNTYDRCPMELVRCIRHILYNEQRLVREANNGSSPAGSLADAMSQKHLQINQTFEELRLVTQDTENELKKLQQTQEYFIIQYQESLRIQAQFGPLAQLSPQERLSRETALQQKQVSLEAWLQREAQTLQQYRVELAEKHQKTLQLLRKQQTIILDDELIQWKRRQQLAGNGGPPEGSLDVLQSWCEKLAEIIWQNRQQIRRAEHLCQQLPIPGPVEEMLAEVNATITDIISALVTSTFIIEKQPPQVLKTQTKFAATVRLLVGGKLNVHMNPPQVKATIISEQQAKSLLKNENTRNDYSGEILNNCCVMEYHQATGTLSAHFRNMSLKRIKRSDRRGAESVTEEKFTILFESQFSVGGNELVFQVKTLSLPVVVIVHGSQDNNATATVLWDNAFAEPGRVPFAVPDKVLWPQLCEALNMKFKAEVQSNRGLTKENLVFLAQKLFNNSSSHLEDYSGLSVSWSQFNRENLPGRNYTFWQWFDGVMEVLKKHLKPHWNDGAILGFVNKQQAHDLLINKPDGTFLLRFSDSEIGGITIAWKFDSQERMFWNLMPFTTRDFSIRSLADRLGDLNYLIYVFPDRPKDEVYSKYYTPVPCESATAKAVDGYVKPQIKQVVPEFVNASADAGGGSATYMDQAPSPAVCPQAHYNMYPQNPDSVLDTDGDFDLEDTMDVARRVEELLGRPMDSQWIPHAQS
# Experimental: as §1
IC50 [1],Ki [1],IC50 [2],Ki [2],Compound
152 µM,75 µM,–,–,COc1cc(CNC(=O)CCCCCCC(C)C)ccc1OP(=O)(O)O [2-Methoxy-4-((8-methylnonanamido)methyl)phenyl dihydrogen phosphate (3a)]
24.9 µM,12.3 µM,0.86 µM,0.39 µM,"CCCCCCCCC(=O)NCc1ccc(OP(=O)(O)O)c(OP(=O)(O)O)c1 [4-(Nonanamidomethyl)-1,2-phenylene bis(dihydrogen phosphate) (6b)]"
98 µM,49 µM,196 µM,96 µM,CCCCCCCCC(=O)NCc1ccc(OP(=O)(O)O)c(OC)c1 [2-Methoxy-4-(nonanamidomethyl)phenyl dihydrogen phosphate (3b)]
26.4 µM,13 µM,0.75 µM,0.34 µM,"CC(C)CCCCCCC(=O)NCc1ccc(OP(=O)(O)O)c(OP(=O)(O)O)c1 [4-((8-Methylnonanamido)methyl)-1,2-phenylene bis(dihydrogen phosphate) (6a)]"

# From BindingDB's records for doi:10.1021/acschembio.5b00817 (University of Leipzig, 2015)
